Laboratory results: ChEMBL document CHEMBL1127588, “A structure-activity relationship study of benzylic modifications of 4-[1-(1-naphthyl)ethyl]-1H-imidazoles on alpha 1- and alpha 2-adrenergic receptors” (J Med Chem, 1994)

Columns and labels:
[1] = target: T1, Adrenergic receptor alpha-1 (Rattus norvegicus, UniProt P15823+P23944+P43140); test: Tested for its binding affinity against alpha-1 receptor in rat brain membrane; type: cell membranes
T1 sequence (P15823 whole entry): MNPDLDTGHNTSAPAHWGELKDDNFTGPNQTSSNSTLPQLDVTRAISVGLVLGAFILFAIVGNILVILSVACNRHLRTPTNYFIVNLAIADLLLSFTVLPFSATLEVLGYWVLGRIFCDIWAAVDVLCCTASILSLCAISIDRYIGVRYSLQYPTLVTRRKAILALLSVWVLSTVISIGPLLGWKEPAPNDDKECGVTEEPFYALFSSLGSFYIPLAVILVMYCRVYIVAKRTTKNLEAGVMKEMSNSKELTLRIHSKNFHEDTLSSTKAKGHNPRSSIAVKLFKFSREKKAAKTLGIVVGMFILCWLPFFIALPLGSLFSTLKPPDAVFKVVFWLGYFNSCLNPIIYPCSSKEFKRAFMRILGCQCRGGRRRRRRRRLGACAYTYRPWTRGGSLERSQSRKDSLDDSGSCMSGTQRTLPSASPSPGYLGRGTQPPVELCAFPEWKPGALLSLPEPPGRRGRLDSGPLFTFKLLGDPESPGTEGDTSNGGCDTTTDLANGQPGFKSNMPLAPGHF
T1 sequence (P23944 whole entry): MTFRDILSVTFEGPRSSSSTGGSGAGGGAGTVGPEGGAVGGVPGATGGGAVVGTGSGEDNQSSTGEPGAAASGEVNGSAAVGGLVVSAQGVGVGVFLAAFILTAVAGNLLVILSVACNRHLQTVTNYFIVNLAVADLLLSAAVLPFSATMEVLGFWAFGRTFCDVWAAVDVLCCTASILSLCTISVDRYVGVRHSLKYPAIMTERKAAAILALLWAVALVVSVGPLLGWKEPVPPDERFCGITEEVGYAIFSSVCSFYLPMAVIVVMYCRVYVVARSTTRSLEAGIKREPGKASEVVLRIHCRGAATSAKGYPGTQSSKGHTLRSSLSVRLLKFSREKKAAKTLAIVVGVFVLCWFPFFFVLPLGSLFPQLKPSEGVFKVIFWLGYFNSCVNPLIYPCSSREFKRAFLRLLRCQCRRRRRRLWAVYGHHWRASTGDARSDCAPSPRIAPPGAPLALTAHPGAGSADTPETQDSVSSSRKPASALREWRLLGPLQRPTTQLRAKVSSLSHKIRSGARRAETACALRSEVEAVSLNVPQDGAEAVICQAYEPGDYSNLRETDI
T1 sequence (P43140 whole entry): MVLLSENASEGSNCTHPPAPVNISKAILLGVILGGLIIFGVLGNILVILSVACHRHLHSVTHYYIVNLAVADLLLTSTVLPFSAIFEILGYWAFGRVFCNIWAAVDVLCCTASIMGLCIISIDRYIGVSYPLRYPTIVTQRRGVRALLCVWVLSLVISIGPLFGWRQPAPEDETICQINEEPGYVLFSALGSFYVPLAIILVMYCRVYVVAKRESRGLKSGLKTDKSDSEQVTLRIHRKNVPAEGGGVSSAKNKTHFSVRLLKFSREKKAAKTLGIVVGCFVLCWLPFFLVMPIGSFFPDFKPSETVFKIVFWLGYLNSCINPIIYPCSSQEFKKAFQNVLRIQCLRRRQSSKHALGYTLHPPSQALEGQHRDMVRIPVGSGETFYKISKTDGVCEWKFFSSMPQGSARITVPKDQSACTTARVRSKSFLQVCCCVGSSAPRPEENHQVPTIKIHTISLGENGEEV

[2] = target: T2, Adrenergic receptor alpha-2 (Rattus norvegicus, UniProt P22086+P19328+P22909); test: Tested for its binding affinity against alpha-2 receptor in rat brain membrane; type: cell membranes
T2 sequence (P22086 whole entry): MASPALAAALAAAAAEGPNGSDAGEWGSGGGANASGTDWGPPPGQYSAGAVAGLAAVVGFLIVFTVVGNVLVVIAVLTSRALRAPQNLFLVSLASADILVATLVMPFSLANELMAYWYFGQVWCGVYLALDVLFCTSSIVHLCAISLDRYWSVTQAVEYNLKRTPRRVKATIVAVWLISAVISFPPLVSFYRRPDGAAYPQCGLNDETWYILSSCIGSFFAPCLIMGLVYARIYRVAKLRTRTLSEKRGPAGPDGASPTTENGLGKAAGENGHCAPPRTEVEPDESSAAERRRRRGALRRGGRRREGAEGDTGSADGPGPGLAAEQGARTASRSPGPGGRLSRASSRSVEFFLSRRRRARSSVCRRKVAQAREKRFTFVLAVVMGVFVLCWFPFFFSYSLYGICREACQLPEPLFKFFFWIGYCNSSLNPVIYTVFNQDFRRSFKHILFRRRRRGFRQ
T2 sequence (P19328 whole entry): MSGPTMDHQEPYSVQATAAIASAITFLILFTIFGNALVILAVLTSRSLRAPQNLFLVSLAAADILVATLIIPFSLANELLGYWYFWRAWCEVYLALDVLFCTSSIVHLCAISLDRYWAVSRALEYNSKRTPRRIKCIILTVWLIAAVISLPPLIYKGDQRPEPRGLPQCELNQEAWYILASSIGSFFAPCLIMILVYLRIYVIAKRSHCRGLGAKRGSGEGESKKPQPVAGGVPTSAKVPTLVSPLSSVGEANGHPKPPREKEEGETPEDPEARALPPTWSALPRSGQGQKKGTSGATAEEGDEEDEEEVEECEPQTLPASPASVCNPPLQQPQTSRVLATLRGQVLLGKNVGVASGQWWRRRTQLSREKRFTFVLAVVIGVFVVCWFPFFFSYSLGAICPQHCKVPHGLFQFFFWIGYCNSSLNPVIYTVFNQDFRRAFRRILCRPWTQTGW
T2 sequence (P22909 whole entry): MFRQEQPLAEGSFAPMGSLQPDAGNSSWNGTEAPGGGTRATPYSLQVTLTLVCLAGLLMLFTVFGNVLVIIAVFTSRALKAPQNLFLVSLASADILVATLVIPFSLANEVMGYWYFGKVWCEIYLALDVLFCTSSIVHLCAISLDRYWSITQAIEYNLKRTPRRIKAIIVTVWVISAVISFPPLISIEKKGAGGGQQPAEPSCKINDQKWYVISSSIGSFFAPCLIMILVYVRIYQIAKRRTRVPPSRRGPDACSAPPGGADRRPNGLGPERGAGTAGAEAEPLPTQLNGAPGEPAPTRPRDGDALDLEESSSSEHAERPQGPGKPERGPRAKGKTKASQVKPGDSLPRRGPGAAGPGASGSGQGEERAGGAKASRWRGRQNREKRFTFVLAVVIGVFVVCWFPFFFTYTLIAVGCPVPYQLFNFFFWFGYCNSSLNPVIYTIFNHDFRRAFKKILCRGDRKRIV

| SMILES | Ki [1] | Ki [2] |
| --- | --- | --- |
| Cc1cccc(C(C)c2c[nH]cn2)c1C (centres undefined) [MEDETOMIDINE] | 1102 nM | 19 nM |
| CC(c1c[nH]cn1)c1cccc2ccccc12 (stereo in doubt; S-(+)-2) | 461 nM | 11 nM |
| CC(c1c[nH]cn1)c1cccc2ccccc12 (stereo in doubt; S-(-)-2) | 536 nM | 24 nM |
| CC(c1c[nH]cn1)c1cccc2ccccc12 (stereo in doubt; 2) | 310 nM | 17 nM |
| Cl.OC(c1c[nH]cn1)c1cccc2ccccc12 (centres undefined) | 9255 nM | 8810 nM |
| COC(c1c[nH]cn1)c1cccc2ccccc12.Cl (centres undefined) | > 50000 nM | 8582 nM |
| Cl.c1ccc2c(Cc3c[nH]cn3)cccc2c1 | 188 nM | 68 nM |
